According to patent US8551507B2, “Terpene glycosides and their combinations as solubilizing agents” (Board of Supervisors of Louisiana State University And …, priority 2009, dated 2013):
Converted amounts (≈) assume the structure as drawn. Where two headings read alike, the source gives them in different places.

Legend:
[1] = 72 h
physchem [2] = conditions: 25 °C, water, thermodynamic from solid
[3] = Merck Index, Material Safety Data Sheets or general statement, cited from earlier work
[4] = Solubility test: low-solubility compound in water or in water solutions containing 10% w/v natural solubilizer, quantified by HPLC/LC-MS; conditions: 25° C. 72 hr; for Concentration in water solution With Geniposide: 10% w/v geniposide in water; for Concentration in water solution With Mogroside V: 10% w/v mogroside V in water; for Concentration in water solution With Paeoniflorin: 10% w/v paeoniflorin in water; for Concentration in water solution With Rebaudioside A: 10% w/v rebaudioside A in water; for Concentration in water solution With Rubusoside: 10% w/v rubusoside in water
[5] = Safety of daily consumption of steviol glycosides (estimates based on aglycone steviol); format: in vivo
physchem [6] = conditions: water
[7] = in vivo; cited from earlier work
hypertensive rats = conditions: intraperitoneal, 50 mg/kg and 100 mg/kg body weight, hypertensive rats (Hsu et al. 2002); cited from earlier work
[8] = cyclodextrins, comparison; cited from earlier work

| SMILES | Concentration in water solution With Astragaloside [1] [µg/mL] | Concentration in water solution With Geniposide [1] [µg/mL] | Concentration in water solution With Mogroside V [1] [µg/mL] | Concentration in water solution With Paeoniflorin [1] [µg/mL] | Concentration in water solution With Rubusoside [1] [µg/mL] | Water solubility in words [3] | further results |
| --- | --- | --- | --- | --- | --- | --- | --- |
| C[C@@H]1CC[C@H]2[C@@H](C)C(=O)O[C@@H]3O[C@@]4(C)CC[C@@H]1[C@]32OO4 [Artemisinin, artemisinin, reference compound] | 0 | 146 | 148 | 218 | 280 | poorly soluble | solubility at 72 h (physchem [2]): 53 µg/mL (≈ 0.188 mM); Water solubility in words ([3]; listed as artemisinin): insoluble |
| CC[C@@]1(O)C(=O)OCc2c1cc1n(c2=O)Cc2cc3ccccc3nc2-1 [Camptothecin, camptothecin] | – | – | – | – | – | poor solubility in water | Water solubility in words ([3]; listed as camptothecin): insoluble; Concentration in water solution With Geniposide [4]: 25 µg/mL; Concentration in water solution With Mogroside V [4]: 18 µg/mL; Concentration in water solution With Paeoniflorin [4]: 53 µg/mL; Concentration in water solution With Paeoniflorin ([4]; listed as camptothecin): 54 µg/mL; Concentration in water solution With Rebaudioside A [4]: 48 µg/mL; Concentration in water solution With Rubusoside [4]: 61 µg/mL |
| Cc1ccc(-c2cc(C(F)(F)F)nn2-c2ccc(S(N)(=O)=O)cc2)cc1 [Celecoxib, celecoxib, reference compound] | 0 | 3 | 47 | 253 | 488 | poor solubility in water | Solubility in water without solubilizer [1]: 0^2 μg/mL; Water solubility in words ([3]; listed as celecoxib): water insoluble |
| C[C@H]1O[C@@H](O[C@H]2[C@@H](O)C[C@H](O[C@H]3[C@@H](O)C[C@H](O[C@H]4CC[C@@]5(C)[C@H](CC[C@@H]6[C@@H]5C[C@@H](O)[C@]5(C)[C@@H](C7=CC(=O)OC7)CC[C@]65O)C4)O[C@@H]3C)O[C@@H]2C)C[C@H](O)[C@@H]1O [Digoxin, digoxin] | – | – | – | – | – | – | solubility (physchem [2]): 19 µg/mL (≈ 0.0243 mM) |
| CO[C@H]1C[C@H](O[C@H]2CC[C@@]3(C)[C@H](CC[C@@H]4[C@@H]3CC[C@]3(C)[C@@H](C5=CC(=O)OC5)[C@@H](OC(C)=O)C[C@]43O)C2)O[C@@H](C)[C@@H]1O [Oleandrin, oleandrin] | – | – | – | – | – | practically insoluble in water | solubility (physchem [2]): 3 µg/mL (≈ 0.0052 mM); Concentration in water solution With Geniposide [4]: 28 µg/mL; Concentration in water solution With Mogroside V [4]: 47 µg/mL; Concentration in water solution With Paeoniflorin [4]: 42 µg/mL; Concentration in water solution With Rebaudioside A [4]: 67 µg/mL; Concentration in water solution With Rubusoside [4]: 123 µg/mL; Concentration in water solution With Stevioside ([4]; 10% w/v stevioside in water): 74 µg/mL; Concentration in water solution With Astragaloside ([4]; nominal 10% w/v astragaloside IV in water (precipitated, less than 10%)): 5 µg/mL; Concentration in water solution With Steviol monoside ([4]; nominal 10% w/v steviol monoside in water (precipitated, less than 10%)): 7 µg/mL |
| C=C1C[C@@]23CC[C@H]4[C@@](C)(CCC[C@@]4(C)C(=O)O[C@@H]4O[C@H](CO)[C@@H](O)[C@H](O)[C@H]4O)[C@@H]2CC[C@]1(O[C@@H]1O[C@H](CO)[C@@H](O)[C@H](O)[C@H]1O)C3 [Rubusoside, b-D-glucosyl ester of 13-O-b-D-glucosyl-steviol] | – | – | – | – | – | good solubility in water | No-observed-effect level ([5]; estimate based on 383 mg/kg body weight daily expressed as steviol): up to 766 mg rubusoside/kg body weight; Daily consumption that is safe and has no adverse effect ([5]; estimate based on the aglycone steviol): 8 mg rubusoside/kg body weight; solubility (physchem [6]; 25 °C): ~400 mg/mL (≈ 622 mM); solubility (physchem [6]; 37 °C): ~800 mg/mL (≈ 1240 mM) |
| CCC(C)n1ncn(-c2ccc(N3CCN(c4ccc(OCC5COC(Cn6cncn6)(c6ccc(Cl)cc6Cl)O5)cc4)CC3)cc2)c1=O (centres unmarked) [itraconazole, reference compound] | – | – | – | – | – | practically insoluble in water | – |
| C=C1C[C@@]23CC[C@H]4[C@@](C)(CCC[C@@]4(C)C(=O)O)[C@@H]2CC[C@]1(O)C3 [steviol] | – | – | – | – | – | – | No-observed-effect level expressed as steviol [7]: 383 mg/kg body weight daily |
| C=C1C[C@@]23CC[C@H]4[C@@](C)(CCC[C@@]4(C)C(=O)O[C@@H]4O[C@H](CO)[C@@H](O)[C@H](O)[C@H]4O)[C@@H]2CC[C@]1(O[C@@H]1O[C@H](CO)[C@@H](O)[C@H](O)[C@H]1O[C@@H]1O[C@H](CO)[C@@H](O)[C@H](O)[C@H]1O)C3 [stevioside] | – | – | – | – | – | – | Adverse effects (hypertensive rats): no adverse effects |
| OC[C@H]1O[C@@H]2O[C@H]3[C@H](O)[C@@H](O)[C@@H](O[C@H]4[C@H](O)[C@@H](O)[C@@H](O[C@H]5[C@H](O)[C@@H](O)[C@@H](O[C@H]6[C@H](O)[C@@H](O)[C@@H](O[C@H]7[C@H](O)[C@@H](O)[C@@H](O[C@H]1[C@H](O)[C@H]2O)O[C@@H]7CO)O[C@@H]6CO)O[C@@H]5CO)O[C@@H]4CO)O[C@@H]3CO [α-CD] | – | – | – | – | – | – | Solubility in water [8]: 15 g/100 mL |

More lines, main results first:

| Concentration in water solution With Astragaloside [1] [µg/mL] | Concentration in water solution With Geniposide [1] [µg/mL] | Concentration in water solution With Mogroside V [1] [µg/mL] | Concentration in water solution With Paeoniflorin [1] [µg/mL] | Concentration in water solution With Rubusoside [1] [µg/mL] | SMILES | Water solubility in words [3] | further results |
| --- | --- | --- | --- | --- | --- | --- | --- |
| 0.4 | 48 | 58 | 565 | 132 | CC(C)/N=c1\cc2n(-c3ccc(Cl)cc3)c3ccccc3nc-2cc1Nc1ccc(Cl)cc1 [Clofazimine, clofazimine, reference compound] | practically insoluble in water | Concentration in water solution With Rebaudioside A [1]: 109 µg/mL; Concentration in water solution With Steviol monoside [1]: 0 µg/mL; Concentration in water solution With Stevioside [1]: 64 µg/mL; solubility at 72 h (physchem [2]): 7.6 µg/mL (≈ 0.0161 mM) |
| – | – | – | – | 111 | COC1=C(OC)C(=O)C(C/C=C(\C)CC/C=C(\C)CC/C=C(\C)CC/C=C(\C)CC/C=C(\C)CC/C=C(\C)CC/C=C(\C)CC/C=C(\C)CC/C=C(\C)CCC=C(C)C)=C(C)C1=O [Coenzyme Q10, coenzyme Q10] | insolubility in water | – |
| 0 | 4 | 44 | 5 | 262 | COc1cc(/C=C/C(=O)CC(=O)/C=C/c2ccc(O)c(OC)c2)ccc1O [Curcumin, curcumin] | insoluble in water | Concentration in water solution With Steviol monoside [1]: 4 µg/mL; Water solubility in words ([3]; listed as curcumin): insoluble |
| – | 1 | 7 | 20 | 65 | CC(=O)O[C@H]1C(=O)[C@@]2(C)[C@H]([C@H](OC(=O)c3ccccc3)[C@]3(O)C[C@H](OC(=O)[C@H](O)[C@@H](NC(=O)c4ccccc4)c4ccccc4)C(C)=C1C3(C)C)[C@]1(OC(C)=O)CO[C@@H]1C[C@@H]2O [Paclitaxel, paclitaxel, reference compound] | not soluble in water | Concentration in water solution With Rebaudioside A [1]: 26 µg/mL; Water solubility in words ([3]; listed as paclitaxel): insoluble |
| 0 | 16 | 18 | 37 | 150 | COc1cc(C2Oc3cc([C@H]4Oc5cc(O)cc(O)c5C(=O)[C@@H]4O)ccc3OC2CO)ccc1O (some centres unmarked) [Silybin, silybin] | – | Solubility in water without solubilizer [1]: 0^2 μg/mL |
| 0 | 0.1 | 0.5 | 23 | 127 | Cc1coc2c1C(=O)C(=O)c1c-2ccc2c1CCCC2(C)C [Tanshinone IIA, tanshinone IIA] | – | Solubility in water without solubilizer [1]: 0^2 μg/mL |
